Test results from publication PMC7619385 (ACS infectious diseases, 2025).

Each molecule was assayed against NLuc::LmxCLK1 (Leishmania mexicana, UniProt E9AMP2) (assay: cell-based). Details: 10 µM compound, tracer SV366, promastigotes.
Format: cell-based
Description: All compounds were tested at a fixed concentration of 10 µM to enable direct comparison of their target occupancy in live cells.
Serially diluted probes (5 µL) were added to 85 µL of cells in culture media or 85 µL of purified protein. Final well volumes were adjusted to 100 µL with sterile Opti-MEM™ I Reduced Serum Medium (Thermo-Scientific) – for wells containing cells; or Kinase Buffer - for wells containing purified protein. For tracer displacement assays, samples were prepared as above, but final volume was brought to 100 µL by addition of vehicle or serially-diluted test compounds. Final DMSO concentration in these assays was 1%. […] Light emissions at 460+10 nm (BRET donor) and at 610+20 nm (BRET acceptor) were sequentially recorded (integration time = 0.5 s, gain = 3600) using a luminometer (BMG LABTECH Clariostar or Biotek Synergy HT). BRET values are reported in milli-BRET (mBRET) units (mBU), obtained by dividing the acceptor luminescence by the donor luminescence and multiplying the result by a factor of 1,000. BRET values were converted to blank-corrected probe occupancies (%) according to equation [1]: (1) Probeoccupancy(%)=X−Z/Y−Z×100 where X = mBRET value in the presence of the test compound and the probe, Y = mBRET value in the presence of probe only, and Z = mBRET value in the absence of probe and test compound. […]
N#C/C(=C/c1ccc(O)c(O)c1)C(=O)NCc1ccccc1 [AG-490 (Tyrphostin B42)] was tested, and the “Target occupancy Run 1” value was -25.0% and the “Target occupancy Run 2” value was -10.6%. With O=C1Nc2ccc(I)cc2/C1=C/c1cc(Br)c(O)c(Br)c1 [GW5074] the “Target occupancy Run 1” value was -7.5% and the “Target occupancy Run 2” value was -6.2%. In the case of UNC-AA-1-0013 (AAK1), the “Target occupancy Run 1” value is reported as 3.7% and the “Target occupancy Run 2” value is reported as -11.6%.

Same assay, conditions: 10 µM compound, tracer SV366, promastigotes, mean of two experiments
N#C/C(=C/c1ccc(O)c(O)c1)C(=O)NCc1ccccc1 [AG-490 (Tyrphostin B42)] was tested, and the “Target occupancy Average” value was -17.8%. In the case of O=C1Nc2ccc(I)cc2/C1=C/c1cc(Br)c(O)c(Br)c1 [GW5074], the “Target occupancy Average” value is reported as -6.8%. In the case of UNC-AA-1-0013 (AAK1), the “Target occupancy Average” value is reported as -4.0%.

Same assay, conditions: read-out: Target occupancy Average
Work on O=C1c2ccc(Nc3ccc(F)cc3F)cc2CCc2ccc(OC[C@H](O)CO)cc21 [Skepinone-L] yielded a receptor occupancy at 10 µM of -1.4%. For CCNc1nc(Nc2cc(F)c(C(=O)N3CCOCC3)cc2OC)ncc1C(F)(F)F [GNE-7915], the receptor occupancy at 10 µM was -3.7%. In the case of CS(=O)(=O)c1ccc(-c2cnc(N)c(C(=O)Nc3ccccc3)n2)cc1 [VE-821], the receptor occupancy at 10 µM is reported as -2.9%. With CNC(=O)c1cccc(-c2ccc3c(N4CCOC[C@@H]4C)nc(N4CCOC[C@@H]4C)nc3n2)c1 [AZD2014] the receptor occupancy at 10 µM was -1.4%.

Same assay, conditions: read-out: Target occupancy Run 1
For O=C1c2ccc(Nc3ccc(F)cc3F)cc2CCc2ccc(OC[C@H](O)CO)cc21 [Skepinone-L], the receptor occupancy at 10 µM was 6.5%. CCNc1nc(Nc2cc(F)c(C(=O)N3CCOCC3)cc2OC)ncc1C(F)(F)F [GNE-7915] gave a receptor occupancy at 10 µM of -10.5%. In the case of CS(=O)(=O)c1ccc(-c2cnc(N)c(C(=O)Nc3ccccc3)n2)cc1 [VE-821], the receptor occupancy at 10 µM is reported as -11.1%. With CNC(=O)c1cccc(-c2ccc3c(N4CCOC[C@@H]4C)nc(N4CCOC[C@@H]4C)nc3n2)c1 [AZD2014] the receptor occupancy at 10 µM was 8.9%.

Same assay, conditions: read-out: Target occupancy Run 2
In the case of O=C1c2ccc(Nc3ccc(F)cc3F)cc2CCc2ccc(OC[C@H](O)CO)cc21 [Skepinone-L], the receptor occupancy at 10 µM is reported as -9.2%. Molecule CCNc1nc(Nc2cc(F)c(C(=O)N3CCOCC3)cc2OC)ncc1C(F)(F)F [GNE-7915] has a receptor occupancy at 10 µM of 3.1%. CS(=O)(=O)c1ccc(-c2cnc(N)c(C(=O)Nc3ccccc3)n2)cc1 [VE-821] showed a receptor occupancy at 10 µM of 5.3%. Work on CNC(=O)c1cccc(-c2ccc3c(N4CCOC[C@@H]4C)nc(N4CCOC[C@@H]4C)nc3n2)c1 [AZD2014] yielded a receptor occupancy at 10 µM of -11.6%.

These molecules were tested against T1, LmxCLK1 (Leishmania mexicana, UniProt E9AMP2) (assay: biochemical). Details: not given.
T1 sequence (E9AMP2 1-422): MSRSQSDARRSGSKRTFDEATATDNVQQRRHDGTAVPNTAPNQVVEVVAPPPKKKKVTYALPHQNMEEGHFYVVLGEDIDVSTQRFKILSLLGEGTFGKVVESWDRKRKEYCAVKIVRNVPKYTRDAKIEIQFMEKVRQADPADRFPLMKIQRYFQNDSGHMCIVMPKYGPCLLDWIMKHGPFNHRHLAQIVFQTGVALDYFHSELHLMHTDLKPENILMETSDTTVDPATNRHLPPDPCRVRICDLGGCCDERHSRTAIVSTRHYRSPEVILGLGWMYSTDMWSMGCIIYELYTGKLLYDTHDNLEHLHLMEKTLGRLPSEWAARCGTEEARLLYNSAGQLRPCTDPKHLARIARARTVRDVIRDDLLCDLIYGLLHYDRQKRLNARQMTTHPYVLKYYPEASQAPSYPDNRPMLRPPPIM
Format: binding
UNC-AA-1-0013 (AAK1) was tested, and the “ΔTm Average” value was -0.2, the “ΔTm Run 1” value was -0.2 and the “ΔTm Run 2” value was -0.3.

Same assay, conditions: DSF, 10 µM compound, 2 µM LmxCLK1, Run 1
With N#C/C(=C/c1ccc(O)c(O)c1)C(=O)NCc1ccccc1 [AG-490 (Tyrphostin B42)] the “ΔTm Run 1” value was 0.1 °C. For O=C1Nc2ccc(I)cc2/C1=C/c1cc(Br)c(O)c(Br)c1 [GW5074], the “ΔTm Run 1” value was 0.0 °C.

Same assay, conditions: DSF, 10 µM compound, 2 µM LmxCLK1, Run 1; read-out: ΔTm Run 1
In the case of O=C1c2ccc(Nc3ccc(F)cc3F)cc2CCc2ccc(OC[C@H](O)CO)cc21 [Skepinone-L], the ΔTm at 10 µM is reported as 0 °C. In the case of CCNc1nc(Nc2cc(F)c(C(=O)N3CCOCC3)cc2OC)ncc1C(F)(F)F [GNE-7915], the ΔTm at 10 µM is reported as -0.1 °C. In the case of CS(=O)(=O)c1ccc(-c2cnc(N)c(C(=O)Nc3ccccc3)n2)cc1 [VE-821], the ΔTm at 10 µM is reported as -0.2 °C. CNC(=O)c1cccc(-c2ccc3c(N4CCOC[C@@H]4C)nc(N4CCOC[C@@H]4C)nc3n2)c1 [AZD2014] showed a ΔTm at 10 µM of 0.3 °C.

Same assay, conditions: DSF, 10 µM compound, 2 µM LmxCLK1, Run 2
In the case of N#C/C(=C/c1ccc(O)c(O)c1)C(=O)NCc1ccccc1 [AG-490 (Tyrphostin B42)], the “ΔTm Run 2” value is reported as 0.2 °C. For O=C1Nc2ccc(I)cc2/C1=C/c1cc(Br)c(O)c(Br)c1 [GW5074], the “ΔTm Run 2” value was -0.4 °C.

Same assay, conditions: DSF, 10 µM compound, 2 µM LmxCLK1, Run 2; read-out: ΔTm Run 2
Work on O=C1c2ccc(Nc3ccc(F)cc3F)cc2CCc2ccc(OC[C@H](O)CO)cc21 [Skepinone-L] yielded a ΔTm at 10 µM of 0.1 °C. With CCNc1nc(Nc2cc(F)c(C(=O)N3CCOCC3)cc2OC)ncc1C(F)(F)F [GNE-7915] the ΔTm at 10 µM was -0.5 °C. Molecule CS(=O)(=O)c1ccc(-c2cnc(N)c(C(=O)Nc3ccccc3)n2)cc1 [VE-821] has a ΔTm at 10 µM of -0.5 °C. CNC(=O)c1cccc(-c2ccc3c(N4CCOC[C@@H]4C)nc(N4CCOC[C@@H]4C)nc3n2)c1 [AZD2014] gave a ΔTm at 10 µM of -0.3 °C.

Same assay, conditions: DSF, 10 µM compound, 2 µM LmxCLK1, mean of two runs
With N#C/C(=C/c1ccc(O)c(O)c1)C(=O)NCc1ccccc1 [AG-490 (Tyrphostin B42)] the “ΔTm Average” value was 0.1 °C. With O=C1Nc2ccc(I)cc2/C1=C/c1cc(Br)c(O)c(Br)c1 [GW5074] the “ΔTm Average” value was -0.2 °C.

Same assay, conditions: DSF, 10 µM compound, 2 µM LmxCLK1, mean of two runs; read-out: ΔTm Average
In the case of O=C1c2ccc(Nc3ccc(F)cc3F)cc2CCc2ccc(OC[C@H](O)CO)cc21 [Skepinone-L], the ΔTm at 10 µM is reported as 0.1 °C. In the case of CCNc1nc(Nc2cc(F)c(C(=O)N3CCOCC3)cc2OC)ncc1C(F)(F)F [GNE-7915], the ΔTm at 10 µM is reported as -0.3 °C. For CS(=O)(=O)c1ccc(-c2cnc(N)c(C(=O)Nc3ccccc3)n2)cc1 [VE-821], the ΔTm at 10 µM was -0.4 °C. CNC(=O)c1cccc(-c2ccc3c(N4CCOC[C@@H]4C)nc(N4CCOC[C@@H]4C)nc3n2)c1 [AZD2014] was tested, and the ΔTm at 10 µM was 0 °C.
